Reference: patent US11053204B2, “Pyrimidinyloxy benzene derivatives as herbicides” (FMC Corporation, priority 2015, dated 2021)

Columns and labels:
Type in all cases: in vivo
[1] = test system: blackgrass (Alopecurus myosuroides); assay: Test A postemergence, visual injury rating; conditions: 0 to 100 scale, 0 is no effect, 100 is complete control, approximately 10 days
Method in brief: (§1)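 Greenhouse pot test, loam/sand soil. Formulation: non-phytotoxic solvent mix plus surfactant. Pre: directed spray onto soil after sowing. Post: plants at 1–2 leaf, 2–10 cm. Rated visually vs untreated controls at ~10 d, 0 (no effect) to 100 (complete control).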

[2] = test system: pigweed (Amaranthus retroflexus); assay: Test A postemergence, visual injury rating; conditions: 0 to 100 scale, 0 is no effect, 100 is complete control, approximately 10 days
Method in brief: as §1

[3] = test system: Italian ryegrass (Lolium multiflorum); assay: Test A postemergence, visual injury rating; conditions: 0 to 100 scale, 0 is no effect, 100 is complete control, approximately 10 days
Method in brief: as §1

kochia (Kochia scoparia) [4] = assay: Test A postemergence, visual injury rating; conditions: 0 to 100 scale, 0 is no effect, 100 is complete control, approximately 10 days
Method in brief: as §1

[5] = test system: barnyardgrass (Echinochloa crus-galli); assay: Test A postemergence, visual injury rating; conditions: 0 to 100 scale, 0 is no effect, 100 is complete control, approximately 10 days
Method in brief: as §1

corn (Zea mays) = assay: Test A postemergence, visual injury rating; conditions: 0 to 100 scale, 0 is no effect, 100 is complete control, approximately 10 days
Method in brief: as §1

[6] = test system: galium (catchweed bedstraw, Galium aparine); assay: Test A postemergence, visual injury rating; conditions: 0 to 100 scale, 0 is no effect, 100 is complete control, approximately 10 days
Method in brief: as §1

[7] = test system: ragweed (common ragweed, Ambrosia elatior); assay: Test A postemergence, visual injury rating; conditions: 0 to 100 scale, 0 is no effect, 100 is complete control, approximately 10 days
Method in brief: as §1

[8] = test system: wheat (Triticum aestivum); assay: Test A postemergence, visual injury rating; conditions: 0 to 100 scale, 0 is no effect, 100 is complete control, approximately 10 days
Method in brief: as §1

[9] = test system: giant foxtail (Setaria faberii); assay: Test A postemergence, visual injury rating; conditions: 0 to 100 scale, 0 is no effect, 100 is complete control, approximately 10 days
Method in brief: as §1

[10] = test system: pigweed (Amaranthus retroflexus); assay: Test A preemergence, visual injury rating
Method in brief: as §1

[11] = test system: Italian ryegrass (Lolium multiflorum); assay: Test A preemergence, visual injury rating
Method in brief: as §1

kochia (Kochia scoparia) [12] = assay: Test A preemergence, visual injury rating
Method in brief: as §1

[13] = test system: barnyardgrass (Echinochloa crus-galli); assay: Test A preemergence, visual injury rating
Method in brief: as §1

[14] = test system: ragweed (common ragweed, Ambrosia elatior); assay: Test A preemergence, visual injury rating
Method in brief: as §1

[15] = test system: giant foxtail (Setaria faberii); assay: Test A preemergence, visual injury rating
Method in brief: as §1

[16] = test system: sedge, umbrella (small-flower umbrella sedge, Cyperus difformis); assay: Test B flooded paddy test, plant response rating; conditions: 250 g ai/ha; Flood; scale of 0 to 100 where 0 is no effect and 100 is complete control; 13 to 15 days
Method in brief: (§2)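 Pots were flooded to 3 cm above the soil surface at treatment, compound applied directly to the paddy water, and that depth held throughout. Plants were kept in a greenhouse for 13 to 15 days, then visually rated against untreated controls.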

[17] = test system: ducksalad (Heteranthera limosa); assay: Test B flooded paddy test, plant response rating; conditions: 250 g ai/ha; Flood; scale of 0 to 100 where 0 is no effect and 100 is complete control; 13 to 15 days
Method in brief: as §2

rice (Oryza sativa) = assay: Test B flooded paddy test, plant response rating; conditions: 250 g ai/ha; Flood; scale of 0 to 100 where 0 is no effect and 100 is complete control; 13 to 15 days
Method in brief: as §2

[18] = test system: barnyardgrass (Echinochloa crus-galli); assay: Test B flooded paddy test, plant response rating; conditions: 250 g ai/ha; Flood; scale of 0 to 100 where 0 is no effect and 100 is complete control; 13 to 15 days
Method in brief: as §2

[19] = 31 g ai/ha, 0 to 100 scale, 0 no effect, 100 complete control
[20] = 125 g ai/ha, 0 to 100 scale (0 no effect, 100 complete control)

N#Cc1cccc(Oc2ncc(Cl)cn2)c1C(=O)CCCCC(F)(F)F [Compound 109]
20: Pigweed plant response rating ([2]; 31 g ai/ha) | Kochia plant response rating (kochia (Kochia scoparia) [4]; 125 g ai/ha) | Corn plant response rating (corn (Zea mays); 125 g ai/ha) | Ragweed plant response rating ([7]; 125 g ai/ha) | Barnyardgrass plant response rating [13, 20]
10: Corn plant response rating (corn (Zea mays); 31 g ai/ha)
30: Galium plant response rating ([6]; 125 g ai/ha)
60: Pigweed plant response rating ([2]; 125 g ai/ha) | Plant response rating, Pigweed [10, 20]
0: Blackgrass plant response rating ([1]; 31 g ai/ha) | Blackgrass plant response rating ([1]; 125 g ai/ha) | Ryegrass, Italian plant response rating ([3]; 31 g ai/ha) | Ryegrass, Italian plant response rating ([3]; 125 g ai/ha) | Kochia plant response rating (kochia (Kochia scoparia) [4]; 31 g ai/ha) | Barnyardgrass plant response rating ([5]; 31 g ai/ha) | Barnyardgrass plant response rating ([5]; 125 g ai/ha) | Galium plant response rating ([6]; 31 g ai/ha) | Ragweed plant response rating ([7]; 31 g ai/ha) | Wheat plant response rating ([8]; 31 g ai/ha) | Wheat plant response rating ([8]; 125 g ai/ha) | Foxtail, Giant plant response rating ([9]; 31 g ai/ha) | Foxtail, Giant plant response rating ([9]; 125 g ai/ha) | Plant response rating, Pigweed [10, 19] | Plant response rating, Ryegrass, Italian [11, 19] | Plant response rating, Ryegrass, Italian [11, 20] | Plant response rating, Kochia (kochia (Kochia scoparia) [12]; [19]) | Plant response rating, Kochia (kochia (Kochia scoparia) [12]; [20]) | Plant response rating, Barnyardgrass [13, 19] | Plant response rating, Ragweed [14, 19] | Plant response rating, Ragweed [14, 20] | Plant response rating, Foxtail, Giant [15, 19] | Plant response rating, Sedge, Umbrella [16] | Plant response rating, Ducksalad [17] | Plant response rating, Rice (rice (Oryza sativa)) | Plant response rating, Barnyardgrass [18]
40: Plant response rating, Foxtail, Giant [15, 20]

N#Cc1cccc(Oc2ncc(Cl)cn2)c1C(=O)CCC(F)(F)C(F)(F)F [Compound 111]
0: Blackgrass plant response rating ([1]; 31 g ai/ha) | Blackgrass plant response rating ([1]; 125 g ai/ha) | Pigweed plant response rating ([2]; 31 g ai/ha) | Pigweed plant response rating ([2]; 125 g ai/ha) | Ryegrass, Italian plant response rating ([3]; 31 g ai/ha) | Ryegrass, Italian plant response rating ([3]; 125 g ai/ha) | Kochia plant response rating (kochia (Kochia scoparia) [4]; 31 g ai/ha) | Kochia plant response rating (kochia (Kochia scoparia) [4]; 125 g ai/ha) | Barnyardgrass plant response rating ([5]; 31 g ai/ha) | Barnyardgrass plant response rating ([5]; 125 g ai/ha) | Corn plant response rating (corn (Zea mays); 31 g ai/ha) | Corn plant response rating (corn (Zea mays); 125 g ai/ha) | Galium plant response rating ([6]; 31 g ai/ha) | Galium plant response rating ([6]; 125 g ai/ha) | Ragweed plant response rating ([7]; 31 g ai/ha) | Ragweed plant response rating ([7]; 125 g ai/ha) | Wheat plant response rating ([8]; 31 g ai/ha) | Wheat plant response rating ([8]; 125 g ai/ha) | Foxtail, Giant plant response rating ([9]; 31 g ai/ha) | Foxtail, Giant plant response rating ([9]; 125 g ai/ha) | Plant response rating, Pigweed [10, 19] | Plant response rating, Pigweed [10, 20] | Plant response rating, Ryegrass, Italian [11, 19] | Plant response rating, Ryegrass, Italian [11, 20] | Plant response rating, Kochia (kochia (Kochia scoparia) [12]; [19]) | Plant response rating, Kochia (kochia (Kochia scoparia) [12]; [20]) | Plant response rating, Barnyardgrass [13, 19] | Plant response rating, Barnyardgrass [13, 20] | Plant response rating, Ragweed [14, 19] | Plant response rating, Ragweed [14, 20] | Plant response rating, Foxtail, Giant [15, 19] | Plant response rating, Foxtail, Giant [15, 20] | Plant response rating, Sedge, Umbrella [16] | Plant response rating, Ducksalad [17] | Plant response rating, Rice (rice (Oryza sativa)) | Plant response rating, Barnyardgrass [18]

COc1cccc(Oc2ncc(Cl)cn2)c1C(=O)OCCC(F)(F)F [Compound 112]
60: Galium plant response rating ([6]; 31 g ai/ha) | Plant response rating, Pigweed [10, 19]
0: Blackgrass plant response rating ([1]; 31 g ai/ha) | Ryegrass, Italian plant response rating ([3]; 31 g ai/ha) | Ryegrass, Italian plant response rating ([3]; 125 g ai/ha) | Kochia plant response rating (kochia (Kochia scoparia) [4]; 31 g ai/ha) | Barnyardgrass plant response rating ([5]; 31 g ai/ha) | Corn plant response rating (corn (Zea mays); 31 g ai/ha) | Corn plant response rating (corn (Zea mays); 125 g ai/ha) | Wheat plant response rating ([8]; 31 g ai/ha) | Wheat plant response rating ([8]; 125 g ai/ha) | Foxtail, Giant plant response rating ([9]; 31 g ai/ha) | Plant response rating, Ryegrass, Italian [11, 20] | Plant response rating, Kochia (kochia (Kochia scoparia) [12]; [19]) | Plant response rating, Barnyardgrass [13, 19] | Plant response rating, Ragweed [14, 19] | Plant response rating, Ragweed [14, 20] | Plant response rating, Foxtail, Giant [15, 19]
20: Ragweed plant response rating ([7]; 31 g ai/ha) | Plant response rating, Barnyardgrass [18]
30: Blackgrass plant response rating ([1]; 125 g ai/ha) | Kochia plant response rating (kochia (Kochia scoparia) [4]; 125 g ai/ha) | Foxtail, Giant plant response rating ([9]; 125 g ai/ha)
50: Plant response rating, Kochia (kochia (Kochia scoparia) [12]; [20])
70: Pigweed plant response rating ([2]; 125 g ai/ha) | Plant response rating, Foxtail, Giant [15, 20]
80: Galium plant response rating ([6]; 125 g ai/ha) | Plant response rating, Barnyardgrass [13, 20]
10: Barnyardgrass plant response rating ([5]; 125 g ai/ha) | Plant response rating, Ryegrass, Italian [11, 19]
40: Pigweed plant response rating ([2]; 31 g ai/ha) | Ragweed plant response rating ([7]; 125 g ai/ha) | Plant response rating, Rice (rice (Oryza sativa))
100: Plant response rating, Pigweed [10, 20] | Plant response rating, Sedge, Umbrella [16] | Plant response rating, Ducksalad [17]

O=C(OCCC(F)(F)F)c1c(Oc2ncc(Cl)cn2)cccc1C(F)(F)F [Compound 113]
90: Pigweed plant response rating ([2]; 31 g ai/ha) | Plant response rating, Barnyardgrass [13, 20] | Plant response rating, Sedge, Umbrella [16]
20: Corn plant response rating (corn (Zea mays); 125 g ai/ha) | Ragweed plant response rating ([7]; 125 g ai/ha) | Wheat plant response rating ([8]; 125 g ai/ha) | Plant response rating, Rice (rice (Oryza sativa))
80: Kochia plant response rating (kochia (Kochia scoparia) [4]; 31 g ai/ha) | Galium plant response rating ([6]; 125 g ai/ha) | Plant response rating, Ducksalad [17]
0: Blackgrass plant response rating ([1]; 31 g ai/ha) | Ryegrass, Italian plant response rating ([3]; 31 g ai/ha) | Ragweed plant response rating ([7]; 31 g ai/ha) | Wheat plant response rating ([8]; 31 g ai/ha) | Plant response rating, Barnyardgrass [13, 19] | Plant response rating, Ragweed [14, 19] | Plant response rating, Ragweed [14, 20]
65: Plant response rating, Barnyardgrass [18]
10: Barnyardgrass plant response rating ([5]; 31 g ai/ha) | Corn plant response rating (corn (Zea mays); 31 g ai/ha) | Foxtail, Giant plant response rating ([9]; 31 g ai/ha) | Plant response rating, Ryegrass, Italian [11, 19] | Plant response rating, Kochia (kochia (Kochia scoparia) [12]; [19])
40: Blackgrass plant response rating ([1]; 125 g ai/ha) | Barnyardgrass plant response rating ([5]; 125 g ai/ha) | Galium plant response rating ([6]; 31 g ai/ha) | Plant response rating, Ryegrass, Italian [11, 20]
50: Foxtail, Giant plant response rating ([9]; 125 g ai/ha)
100: Pigweed plant response rating ([2]; 125 g ai/ha) | Kochia plant response rating (kochia (Kochia scoparia) [4]; 125 g ai/ha) | Plant response rating, Pigweed [10, 19] | Plant response rating, Pigweed [10, 20] | Plant response rating, Foxtail, Giant [15, 20]
60: Plant response rating, Kochia (kochia (Kochia scoparia) [12]; [20]) | Plant response rating, Foxtail, Giant [15, 19]
30: Ryegrass, Italian plant response rating ([3]; 125 g ai/ha)
